Experiment [1] concerns the target T1, (Bs)Ffh-NG (Bacillus subtilis, UniProt P37105).
T1 construct: purified NG domains of (Ec)Ffh, (Ec)FtsY and (Bs)Ffh; His6 (N); made in house; host or cells: E. coli Rosetta pLysS
T1 sequence (P37105 1-297 limits assumed): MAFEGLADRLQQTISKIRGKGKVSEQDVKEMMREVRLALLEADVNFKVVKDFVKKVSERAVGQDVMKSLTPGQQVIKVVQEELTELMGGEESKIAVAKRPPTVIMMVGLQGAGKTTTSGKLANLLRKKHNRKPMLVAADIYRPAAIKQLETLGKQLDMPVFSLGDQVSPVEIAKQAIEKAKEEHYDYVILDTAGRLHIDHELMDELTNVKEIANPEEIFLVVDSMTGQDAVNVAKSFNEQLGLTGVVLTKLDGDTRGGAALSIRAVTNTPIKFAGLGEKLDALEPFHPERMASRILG
Description: Microscale thermophoresis (MST) ligand binding. More on the design: species or system B. subtilis. The following applies: NG domain labeled with NT 647, 21 °C. Here is the method: (§1) Ligand binding assays with purified NG domains of (Ec)Ffh, (Ec)FtsY and (Bs)Ffh proteins were carried out by microscale thermophoresis (MST)[80]. All experiments were performed on a Monolith NT.115 (NanoTemper Technologies GmbH, Munich, Germany; software: NanoTemper Control Version 2.0.2.29) at 21 °C (red LED power was set to 50–100% and infrared laser power to 75%). After labeling of primary amines within (Ec)Ffh, (Ec)FtsY, and (Bs)Ffh (50 µM each) with the dye NT 647 (according to the manufacturers protocol), the proteins were re-buffered in SEC buffer containing 20 mM HEPES-Na, 20 mM KCl, 20 mM MgCl2, 200 mM NaCl (final pH 7.5), 10 mg ml^−1 BSA and 0.007% Tween. Two-hundred nanomolar of (Ec)Ffh, (Ec)FtsY, and (Bs)Ffh were titrated with GDP, GTP, ppGpp, and pppGpp starting from a concentration ranging between 0.75 and 3 mM, respectively. At least six independent MST experiments per ligand and protein were recorded at 680 nm and analyzed using NanoTemper Analysis version 1.5.37 and 1.2.009, and Origin8G software suits.
A general note: MST reads how a fluorescent partner responds to local heating, with and without ligand.

Experiment [2] deals with SRP-dependent membrane insertion of YohP into INV. Put plainly: Post-translational YohP insertion into inverted inner membrane vesicles (INV), proteinase K resistance. In kind it is biochemical, E. coli. Particulars: at 0.6 mM (p)ppGpp, 10 µM GTP. Here is the method:
For protein transport assay, YohP cloned in pET19b was synthesized in vitro using a purified transcription/translation system composed of cytosolic translation factors (CTF) and high salt-washed ribosomes[35],[36]. The ^35S-Methionine/^35S-Cysteine labeling mix was obtained from Perkin Elmer (Wiesbaden, Germany). INVs of E. coli cells were prepared by sucrose gradient centrifugation of cell extracts as described[76] and resuspended in INV buffer (50 mM triethanolamine acetate, pH 7.5, 200 mM sucrose, 1 mM DTT). […] The supernatant containing YohP was then incubated with INV, liposomes or SecYEG-proteoliposomes for 10 min at 37 °C in the presence of 10 µM GTP. […] Next, the samples were denatured at 56 °C for 10 min in 35 μL of TCA loading dye (prepared by mixing one part of solution III (1 M dithiothreitol) with 4 parts of solution II (6.33% (w/v) SDS, 0.083 M Tris, 30% (v/v) glycerol and 0.053% (w/v) bromophenol blue) and 5 parts of solution I (0.2 M Tris, 0.02 M EDTA pH 8)) and analyzed after separation on a modified SDS-PAGE[35] by phosphor imaging. For quantification of YohP insertion, autoradiography samples were analyzed by using the ImageQuant (GE Healthcare) software. […] Mean values and SEM values were determined by using either Excel (Microsoft Corp.) or GraphPad Prism (GraphPad Prism Corp. San Diego). […]

Experiment [3] deals with T2, (Ec)Ffh-NG (Escherichia coli, UniProt P0AGD7).
T2 construct: purified NG domains of (Ec)Ffh, (Ec)FtsY and (Bs)Ffh; His6 (C); made in house; host or cells: E. coli BL21 (DE3)
Description: Microscale thermophoresis (MST) ligand binding. The arrangement: species or system E. coli. Particulars: NG domain labeled with NT 647, 21 °C. Here is the method:
as §1

Experiment [4] concerns the target T3, (Ec)FtsY-NG (Escherichia coli, UniProt P10121).
T3 construct: purified NG domains of (Ec)Ffh, (Ec)FtsY and (Bs)Ffh; His6 (C); made in house; host or cells: E. coli BL21 (DE3)
Put plainly: Microscale thermophoresis (MST) ligand binding. The arrangement: species or system E. coli. Particulars: NG domain labeled with NT 647, 21 °C; read-out: (Ec)FtsY KD MST. Here is the method: as §1

Structures are written as SMILES.

We go through two molecules from article PMC8881573, “Inhibition of SRP-dependent protein secretion by the bacterial alarmone (p)ppGpp” (Nature Communications, 2022).

T2 sequence (P0AGD7 1-296): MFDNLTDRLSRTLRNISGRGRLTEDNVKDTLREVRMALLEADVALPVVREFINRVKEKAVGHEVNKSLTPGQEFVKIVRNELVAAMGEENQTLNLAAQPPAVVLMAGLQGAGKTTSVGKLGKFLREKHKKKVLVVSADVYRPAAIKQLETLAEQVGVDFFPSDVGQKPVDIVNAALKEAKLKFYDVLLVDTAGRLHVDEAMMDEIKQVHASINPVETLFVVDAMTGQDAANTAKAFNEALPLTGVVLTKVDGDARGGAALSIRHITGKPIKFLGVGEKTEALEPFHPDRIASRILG
T3 sequence (P10121 197-497): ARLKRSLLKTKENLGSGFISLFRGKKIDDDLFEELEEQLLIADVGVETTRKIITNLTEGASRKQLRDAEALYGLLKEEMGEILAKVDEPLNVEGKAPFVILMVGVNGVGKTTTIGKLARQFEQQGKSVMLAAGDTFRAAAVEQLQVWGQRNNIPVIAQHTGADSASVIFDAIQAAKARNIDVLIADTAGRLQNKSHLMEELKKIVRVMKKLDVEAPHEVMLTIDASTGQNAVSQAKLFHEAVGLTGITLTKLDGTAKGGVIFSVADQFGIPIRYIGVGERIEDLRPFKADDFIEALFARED

On to `Nc1nc2c(ncn2[C@@H]2O[C@H](COP(=O)(O)OP(=O)(O)O)[C@@H](OP(=O)(O)OP(=O)(O)O)[C@H]2O)c(=O)[nH]1` [ppGpp], for which the Kd in experiment [1] stood at 32.2 ± 7.5 µM; in experiment [3], 13.5 µM; in experiment [4], 30 µM. Further, the “YohP insertion into INV” value in experiment [2] was “complete block of insertion”.

Consider `Nc1nc2c(ncn2[C@@H]2O[C@H](COP(=O)(O)OP(=O)(O)OP(=O)(O)O)[C@@H](OP(=O)(O)OP(=O)(O)O)[C@H]2O)c(=O)[nH]1` [pppGpp], for which the Kd amounted to 27.2 ± 9.8 µM in experiment [1], 68.3 µM in experiment [3] and 66.6 µM in experiment [4]. Besides, the “YohP insertion into INV” value in experiment [2] is recorded as “complete block of insertion”.

For orientation: Kd means the free concentration of one partner at which half of the binding sites on the other are occupied at equilibrium, for simple one-to-one binding.
